Measured values as given in ChEMBL document CHEMBL5260832, “Hepatoprotective natural triterpenoids” (Eur J Med Chem, 2018).

Tests used:
Mus musculus [1] = species: Mus musculus; assay: Hepatoprotective activity against D-galactosamine-induced liver injury mouse model assessed as […] leakage at 50 ug/ml; type: functional; conditions: dose 50 µg/ml
[2] = Hepatotoxicity in D-GaIN induced Wistar rat assessed as change in induction of TAT level for 10 days relative to control; type: toxicity; design: concentration or dose not given beside the values; conditions: in vivo, 240 h, time 10 day
[3] = Hepatotoxicity in D-GaIN induced Wistar rat assessed as change in GTP leakage level for 10 days relative to control; type: toxicity; conditions: in vivo, 240 h, time 10 day
Hepatocyte [4] = assay: Protection against CCL4-induced rat hepatocyte toxicity assessed as reduction in ALT level at 90 uM relative to control; type: functional; design: scale not given: the % may be the effect or the level left
Huh-7 [5] = assay: Protection against CCl4-induced cell damage in human Huh-7 cells assessed as reduction in ALT level at […] (reference value: 40.2 U/ml); type: functional; design: dose or concentration left out as unconfirmed
Hepatocyte [6] = assay: Hepatoprotective activity against CCl4/GaIN-induced cytotoxicity in rat hepatocytes assessed as decrease in GPT level at 1.0 ug/mL relative to control; type: functional; design: scale not given: the % may be the effect or the level left; conditions: dose 1 µg/ml
Mus musculus [7] = assay: Hepatoprotective activity against CCl4-induced liver injury mouse model assessed as reduction in AST at 20 ug/mL, ip relative to control (reference value: 9.27 IU/L); type: functional; conditions: dose 20.0 µg/ml
Mus musculus [8] = assay: Hepatoprotective activity against CCl4-induced liver injury mouse model assessed as increase in SOD level at 20 ug/mL, ip relative to control (reference value: 5.89 IU/L); type: functional; conditions: dose 20.0 µg/ml
Hepatocyte [9] = assay: Hepatoprotective activity against CCL4-induced rat hepatocyte toxicity assessed as decrease in ALP level at 3.33 mg/mL preincubated for 30 mins followed by CCL4 addition and measured after 180 mins by colorimetric method; type: functional; conditions: time 210.0 min
Mus musculus [10] = assay: Hepatoprotective activity against CCl4-induced liver injury mouse model assessed as reduction in ALT at 20 ug/mL, ip relative to control (reference value: 13.23 IU/L); type: functional; conditions: dose 20.0 µg/ml
Mus musculus [11] = assay: Hepatoprotective activity against D-GaIN/LPS induced liver injury mouse model assessed as reduction in AST at 100 mg/kg, ip relative to control; type: functional; design: scale not given: the % may be the effect or the level left
Huh-7 [12] = assay: Hepatoprotective activity against CCL4-induced mouse model in human Huh-7 cells assessed as decrease in ALT level at 100 ug/mL; type: functional; conditions: dose 100.0 µg/ml
Mus musculus [13] = assay: Hepatoprotective activity against CCl4-induced liver injury mouse model assessed as reduction in MDA level at 20 ug/mL, ip relative to control (reference value: 9.27 IU/L); type: functional; conditions: dose 20.0 µg/ml
Hepatocyte [14] = assay: Hepatoprotective activity against CCL4-induced rat hepatocyte toxicity assessed as decrease in GPT level at 3.33 mg/mL preincubated for 30 mins followed by CCL4 addition and measured after 180 mins by colorimetric method; type: functional; conditions: time 210.0 min
Mus musculus [15] = assay: Hepatoprotective activity against D-GaIN/LPS induced liver injury mouse model assessed as reduction in ALT at 100 mg/kg, ip relative to control; type: functional; design: scale not given: the % may be the effect or the level left
Mus musculus [16] = assay: Hepatoprotective activity against D-GaIN/LPS induced liver injury mouse model assessed as reduction in LDH level at 100 mg/kg, ip relative to control; type: functional; design: scale not given: the % may be the effect or the level left
Hepatocyte [17] = assay: Hepatoprotective activity against CCL4-induced rat hepatocyte toxicity assessed as decrease in GOT level at 3.33 mg/mL preincubated for 30 mins followed by CCL4 addition and measured after 180 mins by colorimetric method; type: functional; conditions: time 210.0 min
Mus musculus [18] = species: Mus musculus; assay: Hepatoprotective activity in mouse liver homogenate assessed as inhibition of iron/ascorbate lipid peroxidation at 5.0 mg/mL relative to control; type: functional; design: scale not given: the % may be the effect or the level left
Mus musculus [19] = species: Mus musculus; assay: Hepatoprotective activity in mouse liver homogenate assessed as inhibition of iron/ascorbate lipid peroxidation at 0.1 mg/mL relative to control; type: functional; design: scale not given: the % may be the effect or the level left
Mus musculus [20] = species: Mus musculus; assay: Hepatoprotective activity in CCl4-induced mouse assessed as change in SGPT level (reference value: 6.9 mmol/L); type: functional
Mus musculus [21] = species: Mus musculus; assay: Hepatoprotective activity in CCl4-induced toxicity in liver injured mouse assessed as increase in inhibition of liver damage at 50 uM relative to control; type: functional; design: scale not given: the % may be the effect or the level left
Mus musculus [22] = species: Mus musculus; assay: Protection against D-GaIN/TNFalpha induced cell death in mouse liver parenchymal cells assessed as reduction in GPT level measured after 2 hrs; type: functional, cell-based

Q: For `CC1(C)CC[C@]2(C)CC[C@]3(C)C(=CC[C@@H]4[C@@]5(C)CC[C@@H](O)C(C)(C)[C@@H]5CC[C@]43C)[C@@H]2C1`, which Activity (Mus musculus [1]) is on record?
A: 60.8%

Q: What about the Activity [2] of the same compound?
A: 70.2%

Q: What about the Activity [3] of the same compound?
A: 5.3%

Q: For `C[C@@H]1O[C@@H](O[C@H]2[C@H](O[C@H]3CC[C@]4(C)[C@H]5CC=C6[C@@H]7CC(C)(C)CC[C@]7(C(=O)O[C@@H]7O[C@H](CO)[C@@H](O[C@@H]8O[C@H](CO)[C@@H](O)[C@H](O)[C@H]8O)[C@H](O)[C@H]7O[C@@H]7O[C@H](CO)[C@@H](O)[C@H](O)[C@H]7O)[C@H](O)C[C@@]6(C)[C@]5(C)CC[C@H]4C3(C)C)O[C@H](CO)[C@@H](O)[C@@H]2O)[C@H](O)[C@H](O)[C@H]1O`, which Activity (Hepatocyte [4]) is on record?
A: 4%

Q: For `C[C@@H]1CC[C@]2(C(=O)O[C@@H]3O[C@H](CO)[C@@H](O)[C@H](O)[C@H]3O)CC[C@]3(C)C(=CC[C@@H]4[C@@]5(C)C[C@H](O)[C@H](O)C(C)(C)[C@@H]5CC[C@]43C)[C@@H]2[C@]1(C)O`, which Activity (Huh-7 [5]) is on record?
A: 15.4 U/ml

Q: Which Activity (Hepatocyte [6]) does the source give for `CC1(C)CC[C@]2(C(=O)O[C@@H]3O[C@H](CO)[C@@H](O)[C@H](O)[C@H]3O)CC[C@]3(C)C(=CC[C@@H]4[C@@]5(C)CC[C@H](O[C@@H]6O[C@H](C(=O)O)[C@@H](O)[C@H](O)[C@H]6O[C@@H]6O[C@H](CO)[C@@H](O)[C@H](O)[C@H]6O)C(C)(C)[C@@H]5CC[C@]43C)[C@@H]2C1` [GINSENOSIDE R0] here?
A: 42%

Q: With SILYMARIN as the compound, how does the Activity (Mus musculus [7]) read?
A: 4.24 IU/L

Q: And the Activity (Mus musculus [8])?
A: 21.7 U/ml

Q: What about the Activity (Hepatocyte [9]) of the same compound?
A: 13.7 IU/L

Q: What about the Activity (Mus musculus [10]) of the same compound?
A: 4.82 U/ml

Q: And the Activity (Mus musculus [11])?
A: 66%

Q: And the Activity (Huh-7 [12])?
A: 10.2 U/ml

Q: What about the Activity (Mus musculus [13]) of the same compound?
A: 3.84 nmol/mL

Q: What about the Activity (Hepatocyte [14]) of the same compound?
A: 11.3 IU/L

Q: And the Activity (Mus musculus [15])?
A: 68%

Q: And the Activity (Mus musculus [16])?
A: 43%

Q: And the Activity (Hepatocyte [17])?
A: 18.5 IU/L

Q: With `C[C@@H]1O[C@@H](O[C@H]2[C@H](O[C@H]3CC[C@]4(C)[C@H]5CC=C6[C@@H]7CC(C)(C)CC[C@]7(C(=O)O[C@@H]7O[C@H](CO)[C@@H](O)[C@H](O)[C@H]7O[C@@H]7O[C@H](CO)[C@@H](O)[C@H](O)[C@H]7O)[C@H](O)C[C@@]6(C)[C@]5(C)CC[C@H]4C3(C)C)O[C@H](CO)[C@@H](O)[C@@H]2O)[C@H](O)[C@H](O)[C@H]1O` as the compound, how does the Activity (Hepatocyte [4]) read?
A: 79%

Q: For `CC1(C)CC[C@]2(C(=O)O)CC[C@]3(C)C(=CC[C@@H]4[C@@]5(C)CC[C@H](O)C(C)(C)[C@@H]5CC[C@]43C)[C@@H]2C1` [OLEANOLIC_ACID], which Activity (Mus musculus [18]) is on record?
A: 38.8%

Q: And the Activity (Mus musculus [19])?
A: 13.7%

Q: What about the Activity (Mus musculus [20]) of the same compound?
A: 3.64 mmol/L

Q: For `C[C@H]1[C@H](C)CC[C@]2(C(=O)O)CC[C@]3(C)C(=CC[C@@H]4[C@@]5(C)CC[C@H](O)[C@@](C)(CO)[C@@H]5CC[C@]43C)[C@H]12`, which Activity (Mus musculus [21]) is on record?
A: 58.3%

Q: With `CC(=O)OC[C@H]1O[C@@H](O[C@H]2C[C@]3(C)[C@H](C[C@@H](O)[C@@H]4[C@@H]([C@]5(C)CC[C@@H](C(C)(C)O)O5)CC[C@]43C)[C@@]3(C)CC[C@H](O)C(C)(C)[C@H]23)[C@H](O[C@@H]2O[C@@H](C)[C@H](O)[C@@H](O)[C@H]2O)[C@@H](O)[C@@H]1O` as the compound, how does the IC50 (Mus musculus [22]) read?
A: 47 µM
